In article PMC8162404, “Proteomimetic surface fragments distinguish targets by function” (Chemical Science, 2020):

How the values were obtained:
Assay in all cases: Pull-down assay with immobilized protein and LSM libraries
CaM = target: T1, CaM (Bos taurus, UniProt P62157); format: binding, bovine; conditions: H12 library; 1:2 stoichiometry assumed; read-out: Surface mapping KD (apparent)
T1 construct: made in house; host or cells: E. coli BL21 (DE3)
Procedure: Pull-down assays with immobilized test proteins and foldameric LSM libraries were carried out. Proteins were equilibrated with LSM probes, and equilibrium bound fractions (FB) were determined from the unbound fractions measured by HPLC-MS methods. Hits were corrected with background binding of the resin. The protocol allowed all binding events to equilibrate irrespective of affinity, specificity, and binding kinetics. This was essential to judge overall druggability and promiscuity. Importantly, the concentration of protein and the total concentration of foldameric LSMs were equimolar, which minimized competition between the probes. This experimental setup approximated independent binding of individual library members. Results were visualized as heat maps of dissociation constants (Fig. 3).
Pull-down assay and data analysis
Pull-down assay. LSM sublibraries were screened separately as previously described.(2) Experiments were performed in the following buffers: (i) 20 mM pH 7.4 HEPES, 150 mM NaCl, 5 mM CaCl2 for CaM; (ii) 50 mM pH 7.4 HEPES, 150 mM NaCl, 1 mM TCEP, 1 mM CaCl2 for S100 proteins; (iii) 20 mM pH 7.4 HEPES, 150 mM NaCl, 1 mM TCEP for Gal-1 and (iv) 20 mM pH 7.4 HEPES, 150 mM NaCl for RecQ-WH. Assays were performed in paper filter spin cups (Thermo Scientific) with sample volumes of 100 µl. Hexahistidine-tagged proteins were immobilized on previously washed Co-NTA resin (TALON, Takara Bio USA, Inc., […]
LSM sublibrary was added, in which each of the 64 library members were used at a concentration of 1 µM. Samples were incubated at room temperature for 30 min with shaking at 100 rpm. Then, samples were centrifuged at 1000 rpm for 2 min and washed with 100 µl pull-down buffer to remove unbound compounds.
The control experiments were performed using the same compounds and the resin but without the immobilized protein. In case of competitive assays, competitor peptides were added to LSM sublibrary samples in 200 µM final concentration. In the case of Gal-1, lactose (competitor) was used in a concentration of 10 mM. Experiments were performed at least twice. Mean […]
LC-MS methods and parameters. HPLC/ESI-MS analysis was used to characterize the samples from the pull-down assay. LC-MS analysis was performed with a Thermo Scientific Dionex UltiMate 3000 HPLC system interfaced to an LTQ ion trap mass spectrometer (Thermo Electron Corp., San Jose, CA, USA). Samples were injected onto an Aeris Widepore XB-C18 (250 x 4.6 mm) analytical HPLC column using gradient elution 5-80 % solution B during 25 minutes. For pull-down samples, eluent composition was 0.1% acetic acid in distilled water (Solution A) and 0.1% acetic acid in acetonitrile (solution B). Mass spectra were acquired in full scan mode from 200 to 2000 m/z range. For overlapping peaks, selective reaction monitoring (SRM) was […]
MS data analysis. Thermo Xcalibur 2.2 software was used for peak identification and integration. The majority of the foldameric fragments could be resolved independently via HPLC-MS/MS measurements based on molecular weight, MS fragmentation pattern and retention time. Peaks of some foldamers with β3-hIle or β3-hLeu in position R2 could not be resolved, these were integrated and averaged. In the processing method, each sample component was associated to a chromatographic peak based on previously identified mass (m/z) and retention time (ref (2) and Table S7-10). Using ICIS peak detection algorithm, the general detection and integration criteria were: smoothing points: 5, baseline window: 80, area noise factor: 5, peak noise factor: 10. Using these processing setups, all raw data files were reprocessed together and analyzed. Errors in peak identification during the automatic processing were corrected manually.
Calculation of the discussed parameters
1. Bound fractions (FB.) were calculated from the HPLC-MS intensity loss of the LSM probes compared to the control where no protein was immobilized to the resin: […]

S100B = target: T2, S100B (Homo sapiens, UniProt P04271); format: binding; conditions: H12 library; 1:1 binding assumed; read-out: Surface mapping KD (apparent)
T2 construct: made in house; host or cells: Escherichia coli BL21(DE3)
T2 sequence (P04271 1-92): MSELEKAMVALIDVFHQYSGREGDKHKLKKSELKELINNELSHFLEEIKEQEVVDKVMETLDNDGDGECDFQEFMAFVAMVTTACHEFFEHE
In short: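 Buffers were HEPES pH 7.4 with 150 mM NaCl, plus 1 mM TCEP and 1 mM CaCl2 (50 mM HEPES) for S100A4 and S100B, 1 mM TCEP for Gal-1, and no additive for RecQ-WH. Immobilized protein at 64 µM was equilibrated 30 min with the LSM sublibrary, and unbound probes were measured by LC-MS.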

Gal-1 = target: T3, Gal-1 (Homo sapiens, UniProt P09382); format: binding; conditions: H12 library; 1:1 binding assumed; read-out: Surface mapping KD (apparent)
T3 construct: made in house; host or cells: E. coli BL21(DE3)
In short: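 His-tagged protein immobilized on Co-NTA resin (64 µM) in 20 mM HEPES pH 7.4, 150 mM NaCl, equilibrated 30 min at room temperature with foldamer LSM sublibraries at equimolar total concentration. Unbound fractions quantified by HPLC-MS versus protein-free resin control; apparent KD assumes 1:1 binding.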

T3 sequence (P09382 whole entry): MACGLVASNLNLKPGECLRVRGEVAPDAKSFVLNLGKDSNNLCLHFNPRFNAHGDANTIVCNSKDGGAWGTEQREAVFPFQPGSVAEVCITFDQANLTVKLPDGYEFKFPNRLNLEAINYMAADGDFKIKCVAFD

Compound | Kd (CaM) [µM] | Kd (S100B) [µM] | Kd (Gal-1) [µM]
C[C@@H](CC(=O)N[C@H]1CCC[C@@H]1C(=O)N[C@H]1CCC[C@@H]1C(N)=O)NC(=O)[C@H]1CCC[C@@H]1NC(=O)[C@H]1CCC[C@@H]1NC(=O)C[C@H](CC(N)=O)NC(=O)[C@H]1CCC[C@@H]1NC(=O)[C@H]1CCC[C@@H]1N [H12 NA] | 447 | – | –
NC(=O)C[C@@H](CC(=O)N[C@H]1CCC[C@@H]1C(=O)N[C@H]1CCC[C@@H]1C(=O)N[C@@H](CC(=O)O)CC(=O)N[C@H]1CCC[C@@H]1C(=O)N[C@H]1CCC[C@@H]1C(N)=O)NC(=O)[C@H]1CCC[C@@H]1NC(=O)[C@H]1CCC[C@@H]1N [H12 ND] | 400 | – | –
N=C(N)NCCC[C@@H](CC(=O)N[C@H]1CCC[C@@H]1C(=O)N[C@H]1CCC[C@@H]1C(N)=O)NC(=O)[C@H]1CCC[C@@H]1NC(=O)[C@H]1CCC[C@@H]1NC(=O)C[C@H](CO)NC(=O)[C@H]1CCC[C@@H]1NC(=O)[C@H]1CCC[C@@H]1N [H12 SR] | – | 123 | 402
CC(C)[C@@H](CC(=O)N[C@H]1CCC[C@@H]1C(=O)N[C@H]1CCC[C@@H]1C(=O)N[C@@H](CCCCN)CC(=O)N[C@H]1CCC[C@@H]1C(=O)N[C@H]1CCC[C@@H]1C(N)=O)NC(=O)[C@H]1CCC[C@@H]1NC(=O)[C@H]1CCC[C@@H]1N [H12 VK] | – | 185 | 430
CSCC[C@@H](CC(=O)N[C@H]1CCC[C@@H]1C(=O)N[C@H]1CCC[C@@H]1C(N)=O)NC(=O)[C@H]1CCC[C@@H]1NC(=O)[C@H]1CCC[C@@H]1NC(=O)C[C@@H](NC(=O)[C@H]1CCC[C@@H]1NC(=O)[C@H]1CCC[C@@H]1N)C(C)C [H12 VM] | – | 303 | 459
CC(C)[C@@H](CC(=O)N[C@H]1CCC[C@@H]1C(=O)N[C@H]1CCC[C@@H]1C(=O)N[C@@H](CCCNC(=N)N)CC(=O)N[C@H]1CCC[C@@H]1C(=O)N[C@H]1CCC[C@@H]1C(N)=O)NC(=O)[C@H]1CCC[C@@H]1NC(=O)[C@H]1CCC[C@@H]1N [H12 VR] | – | 118 | 234
CC(C)[C@@H](CC(=O)N[C@H]1CCC[C@@H]1C(=O)N[C@H]1CCC[C@@H]1C(N)=O)NC(=O)[C@H]1CCC[C@@H]1NC(=O)[C@H]1CCC[C@@H]1NC(=O)C[C@@H](NC(=O)[C@H]1CCC[C@@H]1NC(=O)[C@H]1CCC[C@@H]1N)C(C)C [H12 VV] | – | 277 | 439
NC(=O)[C@H]1CCC[C@@H]1NC(=O)[C@H]1CCC[C@@H]1NC(=O)C[C@H](CC(=O)O)NC(=O)[C@H]1CCC[C@@H]1NC(=O)[C@H]1CCC[C@@H]1NC(=O)C[C@H](Cc1c[nH]c2ccccc12)NC(=O)[C@H]1CCC[C@@H]1NC(=O)[C@H]1CCC[C@@H]1N [H12 WD] | – | 199 | 297
NC(=O)[C@H]1CCC[C@@H]1NC(=O)[C@H]1CCC[C@@H]1NC(=O)C[C@H](CCC(=O)O)NC(=O)[C@H]1CCC[C@@H]1NC(=O)[C@H]1CCC[C@@H]1NC(=O)C[C@H](Cc1c[nH]c2ccccc12)NC(=O)[C@H]1CCC[C@@H]1NC(=O)[C@H]1CCC[C@@H]1N [H12 WE] | – | 229 | 256
NC(=O)C[C@@H](CC(=O)N[C@H]1CCC[C@@H]1C(=O)N[C@H]1CCC[C@@H]1C(N)=O)NC(=O)[C@H]1CCC[C@@H]1NC(=O)[C@H]1CCC[C@@H]1NC(=O)C[C@H](Cc1c[nH]c2ccccc12)NC(=O)[C@H]1CCC[C@@H]1NC(=O)[C@H]1CCC[C@@H]1N [H12 WN] | – | 55 | 270
NC(=O)CC[C@@H](CC(=O)N[C@H]1CCC[C@@H]1C(=O)N[C@H]1CCC[C@@H]1C(N)=O)NC(=O)[C@H]1CCC[C@@H]1NC(=O)[C@H]1CCC[C@@H]1NC(=O)C[C@H](Cc1c[nH]c2ccccc12)NC(=O)[C@H]1CCC[C@@H]1NC(=O)[C@H]1CCC[C@@H]1N [H12 WQ] | – | 53 | 304
C[C@@H](CC(=O)N[C@H]1CCC[C@@H]1C(=O)N[C@H]1CCC[C@@H]1C(N)=O)NC(=O)[C@H]1CCC[C@@H]1NC(=O)[C@H]1CCC[C@@H]1NC(=O)C[C@H](Cc1ccc(O)cc1)NC(=O)[C@H]1CCC[C@@H]1NC(=O)[C@H]1CCC[C@@H]1N [H12 YA] | – | 95 | 222
NC(=O)[C@H]1CCC[C@@H]1NC(=O)[C@H]1CCC[C@@H]1NC(=O)C[C@H](CC(=O)O)NC(=O)[C@H]1CCC[C@@H]1NC(=O)[C@H]1CCC[C@@H]1NC(=O)C[C@H](Cc1ccc(O)cc1)NC(=O)[C@H]1CCC[C@@H]1NC(=O)[C@H]1CCC[C@@H]1N [H12 YD] | – | 430 | 205
NC(=O)[C@H]1CCC[C@@H]1NC(=O)[C@H]1CCC[C@@H]1NC(=O)C[C@H](CCC(=O)O)NC(=O)[C@H]1CCC[C@@H]1NC(=O)[C@H]1CCC[C@@H]1NC(=O)C[C@H](Cc1ccc(O)cc1)NC(=O)[C@H]1CCC[C@@H]1NC(=O)[C@H]1CCC[C@@H]1N [H12 YE] | – | 459 | 198
NC(=O)C[C@@H](CC(=O)N[C@H]1CCC[C@@H]1C(=O)N[C@H]1CCC[C@@H]1C(N)=O)NC(=O)[C@H]1CCC[C@@H]1NC(=O)[C@H]1CCC[C@@H]1NC(=O)C[C@H](Cc1ccc(O)cc1)NC(=O)[C@H]1CCC[C@@H]1NC(=O)[C@H]1CCC[C@@H]1N [H12 YN] | – | 237 | 181
NC(=O)CC[C@@H](CC(=O)N[C@H]1CCC[C@@H]1C(=O)N[C@H]1CCC[C@@H]1C(N)=O)NC(=O)[C@H]1CCC[C@@H]1NC(=O)[C@H]1CCC[C@@H]1NC(=O)C[C@H](Cc1ccc(O)cc1)NC(=O)[C@H]1CCC[C@@H]1NC(=O)[C@H]1CCC[C@@H]1N [H12 YQ] | – | 222 | 176
N=C(N)NCCC[C@@H](CC(=O)N[C@H]1CCC[C@@H]1C(=O)N[C@H]1CCC[C@@H]1C(N)=O)NC(=O)[C@H]1CCC[C@@H]1NC(=O)[C@H]1CCC[C@@H]1NC(=O)C[C@H](Cc1ccc(O)cc1)NC(=O)[C@H]1CCC[C@@H]1NC(=O)[C@H]1CCC[C@@H]1N [H12 YR] | – | 65 | 61
NC(=O)[C@H]1CCC[C@@H]1NC(=O)[C@H]1CCC[C@@H]1NC(=O)C[C@H](CO)NC(=O)[C@H]1CCC[C@@H]1NC(=O)[C@H]1CCC[C@@H]1NC(=O)C[C@H](Cc1ccc(O)cc1)NC(=O)[C@H]1CCC[C@@H]1NC(=O)[C@H]1CCC[C@@H]1N [H12 YS] | – | 195 | 194
C[C@@H](O)[C@@H](CC(=O)N[C@H]1CCC[C@@H]1C(=O)N[C@H]1CCC[C@@H]1C(N)=O)NC(=O)[C@H]1CCC[C@@H]1NC(=O)[C@H]1CCC[C@@H]1NC(=O)C[C@H](Cc1ccc(O)cc1)NC(=O)[C@H]1CCC[C@@H]1NC(=O)[C@H]1CCC[C@@H]1N [H12 YT] | – | 251 | 300
CC(C)[C@@H](CC(=O)N[C@H]1CCC[C@@H]1C(=O)N[C@H]1CCC[C@@H]1C(N)=O)NC(=O)[C@H]1CCC[C@@H]1NC(=O)[C@H]1CCC[C@@H]1NC(=O)C[C@H](Cc1ccc(O)cc1)NC(=O)[C@H]1CCC[C@@H]1NC(=O)[C@H]1CCC[C@@H]1N [H12 YV] | – | 166 | 364
